Assay results from patent US6585996B1, “Lipid-soluble thiamine derivatives in the treatment of autism” (Westlake Laboratories, Inc., priority 2002, dated 2003).

Key:
children with autism = conditions: a few children with autism
From the text: A few children with autism have been exposed to a dermal preparation since the study has been completed.

autistic children = conditions: 10 subjects, 50 mg TTFD twice a day, rectal suppository, two months
Experimental: In a pilot study, ten autistic children, eight boys and two girls, were administered 50 mg of TTFD twice a day through a rectal suppository for a two-month trial period. All the patients were previously diagnosed with autism as defined by those in the field. Parents were asked to fill in a symptom check form to assess the symptoms of the autistic children by giving a numerical score as to severity.
Both forms are scored by computer and were designed by the Autism Research Institute specifically for research of this spectrum of disease. The first form, Form E2, is a diagnostic tool that allocates points on a symptomatic basis. The higher the score, the closer the patient comes to being considered a classic case of autism. The common form of autism that is occurring within the pilot test group seldom reaches the score that indicates classic autism, defined as the inability of a person to relate themself in the ordinary way to people and situations from the beginning of life.
The second form, the ATEC (Autism Treatment Evaluation Checklist) form, also allocates points on a symptomatic basis. […] In addition to completing the forms based on patient behavior, physiological changes were also measured.
Clinical improvement, as shown by the bars, is obtained by subtracting the final ATEC score from that calculated at the outset of the study.

For `CC(=C(CCO)SSCC1CCCO1)N(C=O)Cc1cnc(C)nc1N` (stereo in doubt) [TTFD, thiamine tetrahydrofurfuryl disulfide], the “Clinical results of oral versus rectal administration” value was “does not appear to give as striking clinical results as rectal administration”, the “Clinical condition with dermal preparation” value (children with autism) was “immediate improvement in the child's condition was noted” and the “Subjects showing clinical improvement in their autistic disorder” value (autistic children) was “Eight of the 10”.
